Reference: US10975056B2 (GlaxoSmithKline Intellectual Property Development Limited, priority 2016, dated 2021)
“And” between values parts separate entries of the source, which are not always exact repeats. Identical values can stand only once. Counter-ions that a name gives are not always drawn.

Each compound was assayed against DNMT1 (Homo sapiens, UniProt P26358) (assay: DNMT1 biochemical activity, breaklight assay and/or SPA assay). Conditions: DNMT1 BioChemical (pIC50 category), binned activity in either the breaklight or the SPA assay.
DNMT1, sequence (P26358 whole entry, looked up): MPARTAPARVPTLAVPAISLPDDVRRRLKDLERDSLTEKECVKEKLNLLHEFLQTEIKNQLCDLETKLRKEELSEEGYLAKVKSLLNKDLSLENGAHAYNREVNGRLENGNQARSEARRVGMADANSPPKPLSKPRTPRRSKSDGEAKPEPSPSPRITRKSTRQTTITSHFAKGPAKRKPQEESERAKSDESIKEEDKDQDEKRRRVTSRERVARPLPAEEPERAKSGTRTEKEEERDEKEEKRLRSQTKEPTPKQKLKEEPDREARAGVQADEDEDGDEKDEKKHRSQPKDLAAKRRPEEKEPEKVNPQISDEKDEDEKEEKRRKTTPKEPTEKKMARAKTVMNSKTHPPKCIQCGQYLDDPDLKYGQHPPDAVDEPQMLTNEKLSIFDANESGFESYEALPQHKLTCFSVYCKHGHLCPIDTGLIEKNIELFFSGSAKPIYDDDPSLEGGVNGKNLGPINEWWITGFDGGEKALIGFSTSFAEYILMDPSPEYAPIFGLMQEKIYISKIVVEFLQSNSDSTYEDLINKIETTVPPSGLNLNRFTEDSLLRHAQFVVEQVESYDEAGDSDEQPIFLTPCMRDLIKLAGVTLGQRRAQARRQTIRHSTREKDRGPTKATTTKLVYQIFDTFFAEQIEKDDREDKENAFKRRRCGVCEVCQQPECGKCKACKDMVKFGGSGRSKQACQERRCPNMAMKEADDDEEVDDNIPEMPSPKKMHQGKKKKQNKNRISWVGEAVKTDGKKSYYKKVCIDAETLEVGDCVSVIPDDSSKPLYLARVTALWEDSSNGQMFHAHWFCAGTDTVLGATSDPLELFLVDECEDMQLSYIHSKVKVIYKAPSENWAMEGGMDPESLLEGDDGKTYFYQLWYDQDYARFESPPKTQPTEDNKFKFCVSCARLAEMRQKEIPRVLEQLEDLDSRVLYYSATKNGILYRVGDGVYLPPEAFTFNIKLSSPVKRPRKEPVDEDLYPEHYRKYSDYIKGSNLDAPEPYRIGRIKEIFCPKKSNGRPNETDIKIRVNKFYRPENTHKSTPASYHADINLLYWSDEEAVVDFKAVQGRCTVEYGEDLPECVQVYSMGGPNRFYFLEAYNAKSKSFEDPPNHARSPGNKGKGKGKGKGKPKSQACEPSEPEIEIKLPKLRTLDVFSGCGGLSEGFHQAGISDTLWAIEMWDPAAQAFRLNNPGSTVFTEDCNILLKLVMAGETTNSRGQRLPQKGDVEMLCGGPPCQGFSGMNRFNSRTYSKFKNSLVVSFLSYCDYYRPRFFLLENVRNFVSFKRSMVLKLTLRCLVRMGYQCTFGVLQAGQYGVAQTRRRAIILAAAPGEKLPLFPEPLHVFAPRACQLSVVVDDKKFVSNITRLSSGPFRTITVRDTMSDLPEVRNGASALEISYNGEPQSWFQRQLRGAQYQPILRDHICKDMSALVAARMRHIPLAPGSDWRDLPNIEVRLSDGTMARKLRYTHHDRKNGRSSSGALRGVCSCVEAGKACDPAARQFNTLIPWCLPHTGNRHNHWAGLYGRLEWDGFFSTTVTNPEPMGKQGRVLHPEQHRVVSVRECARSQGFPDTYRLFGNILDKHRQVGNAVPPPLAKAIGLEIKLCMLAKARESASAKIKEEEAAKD
Protocol: DNMT1 breaklight in vitro assays were conducted in a total volume of 50 μl in a standard 384 well format, using black non-binding surface microplates (Corning 3575). […] Negative control wells used 5 μl of DNMT1 and 5 μl of oligonucleotide but 0 μM SAM. All reagents were made up in 1× assay buffer (20 mM Tris pH 6.8, 25 mM NaCl, 0.5 mM MgCl2, 0.01% Triton X100 and 1 mM DTT). The reaction was incubated at 26° C. for 45 min and then stopped with the addition of 40 μl detection reagent. Detection reagent, made up in 1× Gla assay buffer (20 mM Tris pH 8.0, 80 mM NaCl, 0.75 mM MgCl2, 0.01% Triton X100 and 1 mM DTT) has a final concentration of 100 μM SAH (Sigma #A9384) and 0.0008 units/μl Gla1 restriction endonuclease (Sibenzyme #E494). Following addition of the detection reagent the plate was incubated in the dark at room temperature for 5 hr. Fluorescence intensity was then measured on the PHERAstar FS (BMG Labtech) at Ex 485 nm and Em 520 nm, with a gain of 400 and an integration time of 100 ms.
Biochemical activity of DNMT1 analyzed using SPA technology. Plates (Griener 784075) were pre-stamped with 100 nL/well of compound (11-point, 3-fold serial dilution). […] Low control wells contained 5 μL of buffer instead of enzyme. Following a 40 minute incubation, the reaction was quenched upon the addition of 10 μL of stop mixture containing 1 mM SAM (Sigma A7007) and 2 mg/mL PEI beads (Perkin Elmer RPNQ0098). Plates were sealed, centrifuged for 1 min and then read on a Viewlux (Perkin Elmer) using the 613 nm emission filter/300 s read time following a 30 minute dark adapt. Assay conditions prior to quench consisted of 40 nM DNMT1 (601-1600, produced internally), 100 nM 3H-SAM (American Radiolabeled Chemicals ART 0288), 900 nM SAM (New England BioLabs B9003S) and 200 nM hemi methylated DNA oligonucleotide (synthesized at Integrated DNA Technologies, 5′-[…]-3′) in 50 mM HEPES (pH 8.0), 2 mM MgCl2, 1 mM DTT, 0.01% NP-40 and 0.01% BSA.
Comments • 1. […] Where a field is empty, the compound was not tested in that assay.
Compound `CCc1c(C#N)c(S[C@@H](C(N)=O)c2ccccc2)nc(N2CC[C@@H](N)[C@@H](O)C2)c1C#N` [Example 514, (R)-2-((6-((3S,4R)-4-amino-3-hydroxypiperidin-1-yl)-3,5-dicyano-4-ethylpyridin-2-yl)thio)-2-phenylacetamide, Trifluoroacetic acid salt] has an IC50 of under 316 nM.

Same assay, conditions: binned activity in either the breaklight or the SPA assay
With `CCc1c(C#N)c(SC(C(N)=O)c2ccccc2)nc(N2CCC(C3CCN(CCO)CC3)CC2)c1C#N` (stereo not shown) [Example 60, 2-((3,5-dicyano-4-ethyl-6-(1′-(2-hydroxyethyl)-[4,4′-bipiperidin]-1-yl)pyridin-2-yl)thio)-2-phenylacetamide] the “DNMT1 BioChemical (pIC50 category)” value was “D (Category D: ≥6.5)”.
For `CCc1c(C#N)c(SC(C(N)=O)c2ccc(F)cc2)nc(N2CCC(N(C)C3CCC3)CC2)c1C#N` (stereo not shown) [Example 432, 2-((3,5-Dicyano-6-(4-(cyclobutyl(methyl)amino)piperidin-1-yl)-4-ethylpyridin-2-yl)thio)-2-(4-fluorophenyl)acetamide], the “DNMT1 BioChemical (pIC50 category)” value was “D (Category D: ≥6.5)”.
In the case of `CCc1c(C#N)c(SC(C(N)=O)c2ccccc2)nc(N2CCC(NCC3(C)CC3)CC2)c1C#N` (stereo not shown) [Example 473, 2-((3,5-dicyano-4-ethyl-6-(4-(((1-methylcyclopropyl)methyl)amino)piperidin-1-yl)pyridin-2-yl)thio)-2-phenylacetamide], the “DNMT1 BioChemical (pIC50 category)” value is reported as “D (Category D: ≥6.5)”.
For `CCc1c(C#N)c(S[C@@H](C(N)=O)c2ccccc2)nc(N(C)[C@@H]2CCOC2)c1C#N` [Example 501, (R)-2-(3,5-dicyano-4-ethyl-6-(methyl((R)-tetrahydrofuran-3-yl)amino)pyridin-2-ylthio)-2-phenylacetamide], the “DNMT1 BioChemical (pIC50 category)” value was “D (Category D: ≥6.5)”.
With `CCc1c(C#N)c(S[C@H](C(N)=O)c2ccccc2)nc(N(C)[C@@H]2CCOC2)c1C#N` [Example 502, (S)-2-(3,5-dicyano-4-ethyl-6-(methyl((R)-tetrahydrofuran-3-yl)amino)pyridin-2-ylthio)-2-phenylacetamide] the “DNMT1 BioChemical (pIC50 category)” value was “D (Category D: ≥6.5)”.
`CCc1c(C#N)c(SC(C(N)=O)c2ccccc2)nc(N2CCC(NCCOC)CC2)c1C#N` (stereo not shown) [Example 553, 2-((3,5-dicyano-4-ethyl-6-(4-((2-methoxyethyl)amino)piperidin-1-yl)pyridin-2-yl)thio)-2-phenylacetamide] was tested, and the “DNMT1 BioChemical (pIC50 category)” value was “D (Category D: ≥6.5)”.
With `CCc1c(C#N)c(SCc2ccc(N(C)S(C)(=O)=O)cc2)nc(N2CC[C@@H](CNC(=O)CN)C2)c1C#N` [Example 672, (S)-2-amino-N-((1-(3,5-dicyano-4-ethyl-6-((4-(N-methylmethylsulfonamido)benzyl)thio)pyridin-2-yl)pyrrolidin-3-yl)methyl)acetamide] the “DNMT1 BioChemical (pIC50 category)” value was “D (Category D: ≥6.5)”.
For `CCc1c(C#N)c(SC(C(N)=O)c2ccccc2)nc(N2CCCN(CC(O)CO)CC2)c1C#N` (stereo not shown) [Example 678, 2-((3,5-dicyano-6-(4-(2,3-dihydroxypropyl)-1,4-diazepan-1-yl)-4-ethylpyridin-2-yl)thio)-2-phenylacetamide], the “DNMT1 BioChemical (pIC50 category)” value was “D (Category D: ≥6.5)”.
With `COc1c(C#N)c(SC(C(N)=O)c2ccccc2)nc(N2CC[C@H](O)C2)c1C#N` (stereo partly drawn) [Example 696, 2-((3,5-dicyano-6-((S)-3-hydroxypyrrolidin-1-yl)-4-methoxypyridin-2-yl)thio)-2-phenylacetamide] the “DNMT1 BioChemical (pIC50 category)” value was “D (Category D: ≥6.5)”.

Same assay, conditions: binned activity in either the breaklight or the SPA assay; read-out: DNMT1 BioChemical (pIC50 category) (converted)
Compound `CCc1c(C#N)c(S[C@H](C(N)=O)c2ccccc2)nc(N2CCC(C)(N)CC2)c1C#N` (single isomer, unassigned) [Example 617, 2-((6-(4-amino-4-methylpiperidin-1-yl)-3,5-dicyano-4-ethylpyridin-2-yl)thio)-2-phenylacetamide] has an IC50 of 1000 to 31600 nM.
In the case of `N#Cc1c(SC(C(N)=O)c2ccccc2)nc(N2CCCN(CCO)CC2)c(C#N)c1CC(F)(F)F` (stereo not shown) [Example 113, 2-({3,5-Dicyano-6-[4-(2-hydroxyethyl)-1,4-diazepan-1-yl]-4-(2,2,2-trifluoroethyl)pyridin-2-yl}sulfanyl)-2-phenylacetamide], the IC50 is reported as 316 to 1000 nM.
For `CCc1c(C#N)c(SC(C(N)=O)c2ccccc2)nc(N2CCN(C(=O)c3ccccc3)CC2)c1C#N` (stereo not shown) [Example 131, 2-((6-(4-Benzoylpiperazin-1-yl)-3,5-dicyano-4-ethylpyridin-2-yl)thio)-2-phenylacetamide], the IC50 was 316 to 1000 nM.
`CCc1c(C#N)c(SC(C(N)=O)c2ccccc2)nc(N2CC[C@@]3(CCCN3S(C)(=O)=O)[C@@H](O)C2)c1C#N` (stereo partly drawn) [Example 132, 2-((3,5-Dicyano-4-ethyl-6-((5S,6S)-6-hydroxy-1-(methylsulfonyl)-1,8-diazaspiro[4.5]decan-8-yl)pyridin-2-yl)thio)-2-phenylacetamide] showed an IC50 of 316 to 1000 nM.
Work on `CCc1c(C#N)c(SC(C(N)=O)c2ccccc2)nc(N2CCN(CCN3CCCC3)CC2)c1C#N` (stereo not shown) [Example 304, 2-((3,5-Dicyano-4-ethyl-6-(4-(2-(pyrrolidin-1-yl)ethyl)piperazin-1-yl)pyridin-2-yl)thio)-2-phenylacetamide] yielded an IC50 of 316 to 1000 nM.
For `CCc1c(C#N)c(S[C@@H](C(N)=O)c2ccccc2)nc(N(C)CCOP(=O)(O)O)c1C#N` [Example 421, (R)-2-((6-((2-amino-2-oxo-1-phenylethyl)thio)-3,5-dicyano-4-ethylpyridin-2-yl(methyl)amino)ethyldihydroden phosphate], the IC50 was 1000 to 31600 nM.

Same assay, conditions: breaklight assay and/or SPA assay, repeated experimental runs; read-out: average pIC50 against DNMT1 (converted)
`CCc1c(C#N)c(S[C@H](C(N)=O)c2ccccc2)nc(N2CCC(C)(N)CC2)c1C#N` (single isomer, unassigned) [Example 617, 2-((6-(4-amino-4-methylpiperidin-1-yl)-3,5-dicyano-4-ethylpyridin-2-yl)thio)-2-phenylacetamide] was tested, and the IC50 was ≥ 1000 nM and 2510 nM.
`CCc1c(C#N)c(SC(C(N)=O)c2ccccc2)nc(N2CCN(C(=O)c3ccccc3)CC2)c1C#N` (stereo not shown) [Example 131, 2-((6-(4-Benzoylpiperazin-1-yl)-3,5-dicyano-4-ethylpyridin-2-yl)thio)-2-phenylacetamide] showed an IC50 of 316 to 1000 nM.
Compound `CCc1c(C#N)c(SC(C(N)=O)c2ccccc2)nc(N2CC[C@@]3(CCCN3S(C)(=O)=O)[C@@H](O)C2)c1C#N` (stereo partly drawn) [Example 132, 2-((3,5-Dicyano-4-ethyl-6-((5S,6S)-6-hydroxy-1-(methylsulfonyl)-1,8-diazaspiro[4.5]decan-8-yl)pyridin-2-yl)thio)-2-phenylacetamide] has an IC50 of 316 to 1000 nM.
